Patent US20220380331A1, “TREATMENT OF CONDITIONS OF THE NERVOUS SYSTEM” (priority 2019, published 2022)

Experiments:
PNN-HEK293 cells = assay: Immunocytochemistry of PNN formation (WFA) with PNNi analogues; type: cell-based, human; conditions: 0.5 mM and 1 mM, 3 days in vitro
Experimental: To compare the efficacy of PNNi, JD009, and JD013 in reducing PNN formation, immunocytochemistry was conducted using the N-acetylgalactosamine-binding lectin WFA to label PNNs. PNN-HEK293 cells were exposed to 0.5 mM and 1 mM of the compounds for 3 days in vitro. […] Quantification of WFA fluorescence intensity per cell was derived in matched regions of interest (ROI) and normalising overall WFA fluorescence intensity to cell number.

[1] = Solubility in aqueous solution; type: physicochemical
Text: The inventors hypothesised that since the hydroxyl functional groups required for activity were not altered when designing the PNNi analogues, they should retain the capacity to potently reduce PNNs.

Structure (SMILES)	PNN morphology and expression (WFA fluorescence intensity per cell) (PNN-HEK293 cells)	solubility relative to PNNi [1]
CN(C)Cc1cc(=O)oc2cc(O)ccc12 [JD009]	altered PNN expression	increased solubility
O=c1cc(CN2CCOCC2)c2ccc(O)cc2o1 [JD013, 7-hydroxy-4-[(morpholin-4-yl)methyl]-2H-1-benzopyran-2-one]	altered PNN expression	increased solubility
